This assay deals with Normal human epidermal melanocytes. Nature of the assay: Damage inhibition experiment using normal human melanocytes (UVB photoaging, real-time PCR gene expression). The format is cell-based. Here is the method: Melanocytes isolated from normal human skin (Normal human epidermal melanocytes) were treated with ultraviolet B (312 nm) at 20 mJ each, once a day, for two days, and cultured for one month. Melasolv was dissolved in DMSO at 1000×, irradiated with ultraviolet rays, and then immediately placed in a culture medium at 1 and 5 ppm and treated. The cells were grown in a 37° C., 5% CO2 incubator while changing the culture medium containing the experimental material every two days. After the experiment was completed, the cells were dissolved in TRIzol and collected, and total RNA was isolated. Then, cDNA was synthesized therefrom and real-time PCR was performed to compare the relative expression levels of each gene. The RNA was quantified and the same amount of RNA was added to each experimental group, and the expression of each gene was corrected by the expression of GAPDH, a house-keeping gene, to compare the relative expression levels.
The gene primers used were purchased from APPLIED BIOSYSTEMS as follows: […]
For orientation: Quantitative PCR measures a nucleic acid by following its amplification.

Each structure is given as a SMILES string.

On to `COc1cc(/C=C/C(=O)Oc2cc(C)ccc2C(C)C)cc(OC)c1OC` [Melasolv, (5-methyl-2-propan-2-ylphenyl) (E)-3-(3,4,5-trimethoxyphenyl) prop-2-enoate], for which the “expression of the XPA gene” value (UVB-photoaged melanocytes, 5 ppm of Melasolv, compared with control group, FIG. 4) was “increased even higher than that of the control group”. Moreover, the “expression of aging genes (p16, p21)” value (melanocytes irradiated with UVB (312 nm, 20 mJ, once a day for two days), cultured one month, Melasolv at 1 and 5 ppm, real-time PCR corrected by GAPDH, FIGS. 1 and 2) is given as “inhibited in a concentration-dependent manner”. Moreover, the “expression of DNA repair genes (APEX1, XPA, RPA1) that had decreased due to photoaging” value (melanocytes irradiated with UVB (312 nm, 20 mJ, once a day for two days), cultured one month, Melasolv at 1 and 5 ppm, real-time PCR corrected by GAPDH, FIGS. 3 to 5) is reported as “increased”.
